Laboratory results as given in patent US11731956B2, “Substituted 1,2,4-triazoles as intermediates in the synthesis of TYK2 inhibitors” (Alumis Inc., priority 2018, dated 2023).
Each block holds one molecule with its values, some of them ahead of it.

Key:
[1] = Pharmacokinetic study in Beagle dogs; assay type: in vivo; conditions: dog, plasma
Procedure: (§1) The pharmacokinctics of test compounds were evaluated in male C57BL/6 mice, Sprague Dawley rats, Beagle dogs, and cynomolgus monkeys when administered via oral gavage and IV injection. The animals were fasted overnight before administration. Plasma samples were collected predose and at 0.5, 1, 3, 6, 9, 12, and 24 hours postdose. The samples were analyzed by LC/MS/MS and the concentration of test compound at each timepoint was determined by linear regression. Pharmacokinetic parameters were calculated from the plasma concentrations using Pheonix WinNonlin.

[2] = Pharmacokinetic study in Sprague Dawley rats; assay type: in vivo; conditions: rat, plasma
Procedure: as §1

[3] = Pharmacokinetic study in cynomolgus monkeys; assay type: in vivo
Procedure: as §1

[4] = Pharmacokinetic study in C57BL/6 mice; assay type: in vivo, male C57BL/6 mice
Procedure: as §1

[5] = Oral (2 mg/kg), NA: no detectable
[6] = cynomolgus monkey, plasma, iv, I.V. (1 mg/kg)
[7] = male, mouse, plasma, Oral (10 mg/kg)
[8] = male, mouse, plasma, iv, I.V. (2 mg/kg)
[9] = iv, I.V. (1 mg/kg), read-out: Vdss
[10] = cynomolgus monkey, plasma, Oral (2 mg/kg), NA: no detectable

C0 ([1]; iv, I.V. (1 mg/kg)): 182 ± 47.6 ng/mL | C0 ([2]; iv, I.V. (1 mg/kg)): 1200 ± 70 ng/mL | Cmax [3, 5]: 246 ± 124 ng/mL | F % [3, 5]: 59.4 ± 21.1% | Tmax [3, 5]: 4 ± 0 h | C0 [3, 6]: 667 ± 82 ng/mL
SMILES: [2H]C([2H])([2H])CC(=O)c1cnc(Nc2cccc(C#N)n2)cc1Nc1cccc(-c2ncn(C([2H])([2H])[2H])n2)c1OC [Example 198]

C0 ([1]; iv, I.V. (1 mg/kg)): 469 ± 255 ng/mL | CL ([4]; I.V. (2 mg/kg)): 17.3 mL · kg − 1 · min − 1 | Vdss ([4]; I.V. (2 mg/kg)): 0.785 L/kg | Cmax ([4]; Oral (10 mg/kg)): 1899 ng/mL | F % ([4]; Oral (10 mg/kg)): 66.6% | Tmax ([4]; Oral (10 mg/kg)): 0.500 h | AUC [4, 7]: 6400 ng·h/mL | AUC [4, 8]: 1910 ng·h/mL | C0 [4, 8]: 3340 ng/mL | C0 ([2]; iv, I.V. (1 mg/kg)): 1980 ± 101 ng/mL
SMILES: [2H]C([2H])([2H])CC(=O)c1cnc(Nc2ccc(C(C)(C)O)c(F)n2)cc1Nc1cccc(-c2ncn(C([2H])([2H])[2H])n2)c1OC [Example 202]

C0 ([1]; iv, I.V. (1 mg/kg)): 334 ± 96 ng/mL | C0 ([2]; iv, I.V. (1 mg/kg)): 414 ± 56 ng/mL
SMILES: [2H]C([2H])([2H])CC(=O)c1cnc(Nc2cccc(C#N)n2)cc1Nc1nccc(-c2ncn(C([2H])([2H])[2H])n2)c1OC [Example 199]

The next lines start with the molecule.

SMILES: [2H]C([2H])([2H])CC(=O)c1cnc(Nc2ccc(C(C)(C)O)c(F)n2)cc1Nc1nccc(-c2ncn(C([2H])([2H])[2H])n2)c1OC [Example 201]
C0 ([1]; iv, I.V. (1 mg/kg)): 458 ± 336 ng/mL | C0 ([2]; iv, I.V. (1 mg/kg)): 1190 ± 116 ng/mL | Cmax [3, 5]: 13.9 ± 2 ng/mL | F % [3, 5]: 4.67 ± 1.5% | Tmax [3, 5]: 2.33 ± 1.5 h | C0 [3, 6]: 849 ± 50 ng/mL

SMILES: [2H]C([2H])([2H])CC(=O)c1cnc(NC(=O)C2CC2)cc1Nc1nccc(-c2ncn(C([2H])([2H])[2H])n2)c1OC [Example 200]
C0 ([1]; iv, I.V. (0.5 mg/kg)): 29.7 ± 14 ng/mL | clearance ([1]; iv, I.V. (0.5 mg/kg)): 8.17 ± 2.6 mL/min/kg | CL ([4]; I.V. (2 mg/kg)): 7.35 mL · kg − 1 · min − 1 | Vdss ([4]; I.V. (2 mg/kg)): 1.5 L/kg | Cmax ([4]; Oral (10 mg/kg)): 4193 ng/mL | F % ([4]; Oral (10 mg/kg)): 85.1% | Tmax ([4]; Oral (10 mg/kg)): 0.250 h | AUC [4, 7]: 19300 ng·h/mL | AUC [4, 8]: 4480 ng·h/mL | C0 [4, 8]: 2390 ng/mL | C0 ([2]; iv, I.V. (1 mg/kg)): 1030 ± 47 ng/mL | Cmax [3, 5]: 384 ± 22 ng/mL | F % [3, 5]: 27.7 ± 1.7% | Tmax [3, 5]: 2.0 ± 0 h | C0 [3, 6]: 677 ± 81 ng/mL

SMILES: [2H]C([2H])([2H])CC(=O)c1cnc(NC(=O)C2CC2)cc1Nc1cccc(-c2ncn(C([2H])([2H])[2H])n2)c1OC [Example 195]
C0 ([1]; iv, I.V. (1 mg/kg)): 185 ± 8.4 ng/mL | CL ([4]; I.V. (2 mg/kg)): 4.16 mL · kg − 1 · min − 1 | Vdss ([4]; I.V. (2 mg/kg)): 0.688 L/kg | Cmax ([4]; Oral (10 mg/kg)): 4295 ng/mL | F % ([4]; Oral (10 mg/kg)): 41.7% | Tmax ([4]; Oral (10 mg/kg)): 0.500 h | AUC [4, 7]: 16700 ng·h/mL | AUC [4, 8]: 7990 ng·h/mL | C0 [4, 8]: 2950 ng/mL | C0 ([2]; iv, I.V. (1 mg/kg)): 2150 ± 123 ng/mL | Cmax [3, 5]: 663 ± 497 ng/mL | F % [3, 5]: 16.6 ± 9.95% | Tmax [3, 5]: 4.0 ± 0 h | C0 [3, 6]: 1290 ± 106 ng/mL

SMILES: [2H]C([2H])([2H])NC(=O)c1nnc(NC(=O)C2CC2)cc1Nc1cccc(-c2ncn(C)n2)c1OC [control, BMS-986165, reference compound]
AUC ([1]; Oral (2 mg/kg)): 1310 ± 579 ng·h/mL | Cmax ([1]; Oral (2 mg/kg)): 222 ± 46 ng/mL | Tmax ([1]; Oral (2 mg/kg)): 1.67 ± 0.58 h | bioavailability ([1]; Oral (2 mg/kg)): 35.5 ± 15% | half-life ([1]; Oral (2 mg/kg)): 6.21 ± 2.9 h | AUC ([1]; iv, I.V. (1 mg/kg)): 1900 ± 349 ng·h/mL | C0 ([1]; iv, I.V. (1 mg/kg)): 559 ± 34 ng/mL | clearance ([1]; iv, I.V. (1 mg/kg)): 8.85 ± 1.7 mL/min/kg | half-life ([1]; iv, I.V. (1 mg/kg)): 4.43 ± 0.87 h | Vd [1, 9]: 2.27 ± 0.23 L/kg | AUC [4, 7]: 8870 ng·h/mL | bioavailability [4, 7]: 86.7% | half-life [4, 7]: 2.96 h | Cmax ([4]; male, mouse, plasma, Oral (10 mg/kg), read-out: Cmax): 4700 ng/mL | Tmax ([4]; male, mouse, plasma, Oral (10 mg/kg), read-out: Tmax): 0.25 h | AUC [4, 8]: 2040 ng·h/mL | C0 [4, 8]: 3220 ng/mL | clearance [4, 8]: 15.6 mL/min/kg | half-life [4, 8]: 2.19 h | Vd ([4]; male, mouse, plasma, iv, I.V. (2 mg/kg), read-out: Vdss): 1.56 L/kg | AUC ([2]; Oral (5 mg/kg)): 3200 ± 600 ng·h/mL | Cmax ([2]; Oral (5 mg/kg)): 792 ± 260 ng/mL | Tmax ([2]; Oral (5 mg/kg)): 1 ± 0.87 h | bioavailability ([2]; Oral (5 mg/kg)): 32.6 ± 5.4% | half-life ([2]; Oral (5 mg/kg)): 2.93 ± 1.2 h | AUC ([2]; iv, I.V. (1 mg/kg)): 1970 ± 166 ng·h/mL | C0 ([2]; iv, I.V. (1 mg/kg)): 1740 ± 276 ng/mL | clearance ([2]; iv, I.V. (1 mg/kg)): 8.41 ± 0.7 mL/min/kg | half-life ([2]; iv, I.V. (1 mg/kg)): 2.42 ± 1.7 h | Vd [2, 9]: 0.933 ± 0.12 L/kg | AUC [3, 10]: 3190 ± 1630 ng·h/mL | bioavailability [3, 10]: 27.8 ± 14% | half-life [3, 10]: 10.6 ± 3.8 h | Cmax ([3]; cynomolgus monkey, plasma, Oral (2 mg/kg), NA: no detectable, read-out: Cmax): 247 ± 136 ng/mL | Tmax ([3]; cynomolgus monkey, plasma, Oral (2 mg/kg), NA: no detectable, read-out: Tmax): 5.33 ± 1.2 h | AUC [3, 6]: 5740 ± 1170 ng·h/mL | C0 [3, 6]: 1420 ± 264 ng/mL | clearance [3, 6]: 2.79 ± 0.74 mL/min/kg | half-life [3, 6]: 7.54 ± 1.6 h | Vd ([3]; cynomolgus monkey, plasma, iv, I.V. (1 mg/kg), read-out: Vdss): 1.2 ± 0.042 L/kg

SMILES: [2H]C([2H])([2H])CC(=O)c1cnc(Nc2ccc(C(O)(C([2H])([2H])[2H])C([2H])([2H])[2H])c(F)n2)cc1Nc1ncccc1S(C)(=O)=O [Example 203]
C0 [3, 6]: 787 ± 61 ng/mL
